US20120077802A1 (SUNOVION PHARMACEUTICALS INC., priority 2009, published 2012)
pIC50: −log10 of the molar value.

Molecular target: T1, human histamine H3 receptor (Homo sapiens, UniProt Q9Y5N1)
T1 construct: host or cells: cells expressing the human H3 receptor
Assay: H3 GTPγS assay (SPA method), histamine H3 in vitro assay
Type: biochemical
Settings: GTPγ[35S] SPA, membranes of cells expressing human H3 receptor; in one embodiment HCl salts tested; read-out: Potency (functional potency as indicated by IC50)
Experimental: H3 GTPγS assay (SPA method) was performed at EuroScreen (Belgium, ES-392-C) using conventional methods. Briefly, cells expressing the human histamine H3 receptor were homogenized in 15 mM Tris-HCl pH 7.5, 2 mM MgCl2, 0.3 mM EDTA, and 1 mM EGTA. Membranes were washed twice in the above tris buffer, collected by centrifugation (40,000×g, 25 min), and re-suspended in 75 mM Tris-HCl pH 7.5, 12.5 mM MgCl2, 0.3 mM EDTA, 1 mM EGTA, and 250 mM sucrose. Membranes were frozen in liquid nitrogen until use. On the day of the assay, membranes were thawed and diluted in assay buffer (20 mM HEPES pH 7.4, 100 mM NaCl, 10 μg/ml saponin, 1 mM MgCl2) to give 500 μg/ml and mixed (v/v) with GDP in assay buffer for a final GDP concentration of 10 μM and incubated on ice for at least 15 min. PVT-WGA beads (Amersham, RPNQ001) were diluted in assay buffer at 50 mg/mL and mixed with GTPγ[^35S] (Amersham, SJ1308) diluted in assay buffer to give ˜25,000 dpm/10 μL, and mixed vol/vol just before the start of the reaction. The reaction was started by adding 50 μL of test compound, 20 μL of the membranes:GDP mix, 10 μL of buffer, and 20 μL of the GTPγ[^35S]:beads mix in a 96 well plate Optiplate™ (PerkinElmer, 6005299) covered with topseal (TopCount™, PerkinElmer), mixed with an orbital shaker for 2 min, incubated for 1 hour at room temperature, centrifuged for 10 min at 2000 rpm, incubated for 1 h at room temperature, and counted for 1 min in a TopCount™ reader (PerkinElmer). Dose response curves and IC50 values (concentration to inhibit the reaction by 50%) were calculated by nonlinear regression using XLfit software (IDBS).
For antagonists testing, 10 μL of a reference agonist (R-γ-Me-Histamine) instead of 10 μL buffer was added at a concentration corresponding to the EC80 (30 nM). Control ligands were R-γ-Me-Histamine (Tocris, 0569), Imetit (Sigma, I-135), Thioperamide (Tocris, 0644), and Clobenpropit (Tocris, 0754) diluted in assay buffer.
The compounds provided herein were tested in the histamine H3 in vitro assay. In one embodiment, the respective HCl salts of the compounds provided herein were prepared using standard chemical procedures and tested in the histamine H3 in vitro assay.

T1 sequence (Q9Y5N1 whole entry): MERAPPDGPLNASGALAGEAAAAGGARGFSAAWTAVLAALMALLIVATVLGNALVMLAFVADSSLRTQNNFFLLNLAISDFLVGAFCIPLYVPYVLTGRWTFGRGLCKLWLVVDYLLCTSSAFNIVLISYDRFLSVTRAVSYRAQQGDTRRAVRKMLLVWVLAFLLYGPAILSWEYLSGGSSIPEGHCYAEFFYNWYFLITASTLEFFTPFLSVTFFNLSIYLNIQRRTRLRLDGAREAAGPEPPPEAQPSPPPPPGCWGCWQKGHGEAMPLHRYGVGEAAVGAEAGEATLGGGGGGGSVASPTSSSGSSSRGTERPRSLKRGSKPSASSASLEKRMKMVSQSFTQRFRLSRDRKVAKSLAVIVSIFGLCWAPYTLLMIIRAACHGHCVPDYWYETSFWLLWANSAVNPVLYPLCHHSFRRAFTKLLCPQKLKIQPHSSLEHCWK

Q: With `c1cn2cc(-c3ccc4c(c3)CC3(CCN(C5CCC5)CC3)O4)ccc2n1` [Compound 30, 1′-Cyclobutyl-5-(imidazo[1,2-a]pyridin-6-yl)-3H-spiro[benzofuran-2,4′-piperidine]] as the compound, how does the pIC50 read?
A: The pIC50 was ≥ 8.00.

Q: With “5-Bromo-1′,2′,3′,5′,6′,7′,9′,9a′-octahydro-3H-spiro[benzofuran-2,8′-pyrrolo[1,2-a]azepine] and 5-bromo-1′,2′,3′,5′,6′,8′,9′,9a′-octahydro-3H-spiro[benzofuran-2,7′-pyrrolo[1,2-a]azepine] [94/94a]” as the compound, how does the pIC50 read?
A: Its pIC50 is ≥ 6.00.

Q: With `CC(C1CCC1)N1CCC2(CC1)Cc1ccccc1O2` (stereo not shown) [Compound 4, 1′-(1-Cyclobutylethyl)-3H-spiro[benzofuran-2,4′-piperidine]] as the compound, how does the pIC50 read?
A: Its pIC50 is ≥ 6.00.

Q: With `c1ccc2c(c1)ncn2-c1ccc2c(c1)C[C@]1(CCCN(C3CCC3)CC1)O2` (single isomer, unassigned) [Compound 52, 5′-(1H-Benzo[d]imidazol-1-yl)-1-cyclobutyl-3′H-spiro[azepane-4,2′-benzofuran]] as the compound, how does the pIC50 read?
A: Its pIC50 is ≥ 7.00.

Q: With `N#Cc1ccc(-c2ccc3c(c2)CC2(CCN4CCCCC4C2)O3)cc1` (stereo not shown) [Compound 74, 4-(-1′,3′,4′,6′,7′,8′,9′,9a′-Octahydro-3H-spiro[benzofuran-2,2′-quinolizin]-5-yl)benzonitrile] as the compound, how does the pIC50 read?
A: The pIC50 was ≥ 8.00.

Q: With `N#Cc1ccc(-c2ccc3c(c2)CC2(CCN(C4CCOCC4)CC2)O3)cc1` [Compound 19, 4-(1′-(Tetrahydro-2H-pyran-4-yl)-3H-spiro[benzofuran-2,4′-piperidine]-5-yl)benzonitrile] as the compound, how does the pIC50 read?
A: The pIC50 was ≥ 7.00.

Q: With `CN1CCC(N2CCC3(CC2)Cc2cc(-c4ccc(CN)cc4)ccc2O3)CC1` [Compound 15, (4-(1′-(1-Methylpiperidin-4-yl)-3H-spiro[benzofuran-2,4′-piperidine]-5-yl)phenyl)methanamine] as the compound, how does the pIC50 read?
A: Its pIC50 is ≥ 7.00.

Q: With `c1ccc2c(c1)ncn2-c1ccc2c(c1)OC1(CCCN(C3CCC3)CC1)C2` (stereo not shown) [Compound 70, 6′-(1H-Benzo[d]imidazol-1-yl)-1-cyclobutyl-3′H-spiro[azepane-4,2′-benzofuran]] as the compound, how does the pIC50 read?
A: The pIC50 was ≥ 8.00.

Q: With `c1cc2c(cc1CN1CCOCC1)OC1(CCN(C3CCC3)CC1)C2` [Compound 44, 1′-Cyclobutyl-6-(morpholinomethyl)-3H-spiro[benzofuran-2,4′-piperidine]] as the compound, how does the pIC50 read?
A: Its pIC50 is ≥ 7.00.

Q: With `c1cc2c(cc1-c1ccc3nncn3c1)CC1(CCN(C3CCC3)CC1)O2` [Compound 63] as the compound, how does the pIC50 read?
A: Its pIC50 is ≥ 8.00.

Q: With `c1cn2cc(-c3ccc4c(c3)CC3(CCN5CCCCC5C3)O4)ccc2n1` (stereo not shown) [Compound 76, 5-(Imidazo[1,2-a]pyridin-6-yl)-1′,3′,4′,6′,7′,8′,9′,9a′-octahydro-3H-spiro[benzofuran-2,2′-quinolizine]] as the compound, how does the pIC50 read?
A: Its pIC50 is ≥ 8.00.

Q: With `c1cc2nc(-c3ccc4c(c3)CC3(CCN(C5CCC5)CC3)O4)cnc2[nH]1` [Compound 58, 1′-Cyclobutyl-5-(5H-pyrrolo[2,3-b]pyrazin-2-yl)-3H-spiro[benzofuran-2,4′-piperidine]] as the compound, how does the pIC50 read?
A: Its pIC50 is ≥ 8.00.

Q: With `CN1CCN(c2ccc3c(c2)CC2(CCN(C4CCC4)CC2)O3)CC1` [Compound 33, 1′-Cyclobutyl-5-(4-methylpiperazin-1-yl)-3H-spiro[benzofuran-2,4′-piperidine]] as the compound, how does the pIC50 read?
A: The pIC50 was ≥ 8.00.

Q: With “5-(Morpholinomethyl)-2′,3′,4′,6′,7′,9′,10′,10a′-octahydro-1′H,3H-spiro[benzofuran-2,8′-pyrido[1,2-a]azepine] and 5-(morpholinomethyl)-2′,3′,4′,6′,7′,8′,10′,10a′-octahydro-1′H,3H-spiro[benzofuran-2,9′-pyrido[1,2-a]azepine] [87/87a]” as the compound, how does the pIC50 read?
A: Its pIC50 is ≥ 7.00.

Q: With `CC1CCCC1N1CCC2(CC1)Cc1cc(-c3ccc(C#N)cc3)ccc1O2` (stereo not shown) [Compound 18] as the compound, how does the pIC50 read?
A: Its pIC50 is ≥ 7.00.

Q: With `CC(C1CCC1)N1CCC2(CC1)Cc1cc(Br)ccc1O2` (stereo not shown) [Compound 25, 5-Bromo-1′-(1-cyclobutylethyl)-3H-spiro[benzofuran-2,4′-piperidine]] as the compound, how does the pIC50 read?
A: The pIC50 was ≥ 6.00.

Q: With “5-Bromo-2′,3′,4′,6′,7′,9′,10′,10a′-octahydro-1′H,3H-spiro[benzofuran-2,8′-pyrido[1,2-a]azepine] and 5-bromo-2′,3′,4′,6′,7′,8′,10′,10a′-octahydro-1′H,3H-spiro[benzofuran-2,9′-pyrido[1,2-a]azepine] [82/82a]” as the compound, how does the pIC50 read?
A: Its pIC50 is ≥ 6.00.

Q: With `Brc1ccc2c(c1)CC1(CCN3CCCCC3C1)O2` (single isomer, unassigned) [Compound 73, 5-Bromo-1′,3′,4′,6′,7′,8′,9′,9a′-octahydro-3H-spiro[benzofuran-2,2′-quinolizine]] as the compound, how does the pIC50 read?
A: Its pIC50 is ≥ 7.00.

Q: With `CN(C)Cc1ccc2c(c1)OC1(CCN(C3CCC3)CC1)C2` [Compound 43, 1-(1′-Cyclobutyl-3H-spiro[benzofuran-2,4′-piperidine]-6-yl)-N,N-dimethylmethanamine] as the compound, how does the pIC50 read?
A: The pIC50 was ≥ 7.00.

Q: With `c1cn2cc(-c3ccc4c(c3)CC3(CCN5CCCCC5C3)O4)ccc2n1` (stereo not shown) [Compound 77, 5-(Imidazo[1,2-a]pyridin-6-yl)-1′,3′,4′,6′,7′,8′,9′,9a′-octahydro-3H-spiro[benzofuran-2,2′-quinolizine]] as the compound, how does the pIC50 read?
A: The pIC50 was ≥ 8.00.

Q: With `c1ccc2c(c1)ncn2-c1ccc2c(c1)CC1(CCCN(C3CCC3)CC1)O2` (stereo not shown) [Compound 50, 5′-(1H-Benzo[d]imidazol-1-yl)-1-cyclobutyl-3′H-spiro[azepane-4,2′-benzofuran]] as the compound, how does the pIC50 read?
A: The pIC50 was ≥ 8.00.

Q: With `c1cn2cc(-c3ccc4c(c3)CC3(CCCN(C5CCC5)CC3)O4)ccc2n1` (stereo not shown) [Compound 49, 1-Cyclobutyl-5′-(imidazo[1,2-a]pyridin-6-yl)-3′H-spiro[azepane-4,2′-benzofuran]] as the compound, how does the pIC50 read?
A: Its pIC50 is ≥ 7.00.

Q: With `N#Cc1ccc(-c2ccc3c(c2)OC2(CCCN(C4CCC4)CC2)C3)cc1` (stereo not shown) [Compound 68, 4-(1-Cyclobutyl-3′H-spiro[azepane-4,2′-benzofuran]-6′-yl)benzonitrile] as the compound, how does the pIC50 read?
A: The pIC50 was ≥ 7.00.

Q: With `Brc1ccc2c(c1)CC1(CCCN(C3CCC3)CC1)O2` (stereo not shown) [Compound 47, 5′-Bromo-1-cyclobutyl-3′H-spiro[azepane-4,2′-benzofuran]] as the compound, how does the pIC50 read?
A: The pIC50 was ≥ 6.00.

Q: With `N#Cc1ccc(-c2ccc3c(c2)CC2(CCN(C4CCCCC4)CC2)O3)cc1` [Compound 20, 4-(1′-Cyclohexyl-3H-spiro[benzofuran-2,4′-piperidine]-5-yl)benzonitrile] as the compound, how does the pIC50 read?
A: Its pIC50 is ≥ 7.00.

Q: With `Clc1ccc2c(c1)OC1(CCCN(C3CCC3)CC1)C2` (stereo not shown) [Compound 67, 6′-Chloro-1-cyclobutyl-3′H-spiro[azepane-4,2′-benzofuran]] as the compound, how does the pIC50 read?
A: The pIC50 was ≥ 6.00.

Q: With `c1cc2cc(-c3ccc4c(c3)CC3(CCN(C5CCC5)CC3)O4)ccc2[nH]1` [Compound 7, 1′-Cyclobutyl-5-(1H-indol-5-yl)-3H-spiro[benzofuran-2,4′-piperidine]] as the compound, how does the pIC50 read?
A: The pIC50 was ≥ 7.00.

Q: With `Brc1ccc2c(c1)CC1(CCN3CCCCC3C1)O2` (single isomer, unassigned) [Compound 72, 5-Bromo-1′,3′,4′,6′,7′,8′,9′,9a′-octahydro-3H-spiro[benzofuran-2,2′-quinolizine]] as the compound, how does the pIC50 read?
A: The pIC50 was ≥ 6.00.

Q: With `N#Cc1ccc(-c2ccc3c(c2)OC2(CCN(C4CCC4)CC2)C3)cc1` [Compound 35, 4-(1′-Cyclobutyl-3H-spiro[benzofuran-2,4′-piperidine]-6-yl)benzonitrile] as the compound, how does the pIC50 read?
A: The pIC50 was ≥ 7.00.

Same assay, conditions: histamine H3 in vitro assay; read-out: IC50 values

Q: With `CN1CCC(N2CCC3(CC2)Cc2ccccc2O3)CC1` [Compound 2, 1′-(1-Methylpiperidin-4-yl)-3H-spiro[benzofuran-2,4′-piperidine]] as the compound, how does the pIC50 read?
A: Its pIC50 is < 6.00.

Q: With `Brc1ccc2c(c1)CC1(CCN(Cc3c[nH]cn3)CC1)O2` [Compound 26, 1′-((1H-Imidazol-4-yl)methyl)-5-bromo-3H-spiro[benzofuran-2,4′-piperidine]] as the compound, how does the pIC50 read?
A: The pIC50 was < 6.00.

Q: With `c1ccc2c(c1)CC1(CCN(Cc3c[nH]cn3)CC1)O2` [Compound 3, 1′-((1H-Imidazol-4-yl)methyl)-3H-spiro [benzofuran-2,4′-piperidine]] as the compound, how does the pIC50 read?
A: Its pIC50 is < 6.00.

Tested on: not listed separately
Assay: In vivo rat PK, brain exposures
Settings: adult male rats, oral gavage in water, 10 mg/kg, 1 hr after dosing, read-out: Compound Concentration (ng/g rat brain) 1 hr
Experimental: In vivo rat PK studies were performed using certain compounds provided herein. In one embodiment, a compound was dissolved in water and was administered to adult male rats (n=3 per time point) by oral gavage at a dose of 3 to 10 mg/kg. The plasma samples were collected and brain tissues were harvested at various time points after dosing, e.g., 15 min, 30 min, 1 hr, 2 hr, and 24 hr after dosing. The PK samples were analyzed; and the compound concentrations in these samples were quantified by LC/MS. The pKa values of the R^6 moiety of the compounds were calculated using ACD Lab (Version 12.01).

Q: Which concentration at 1 hr does the source give for `c1cn2cc(-c3ccc4c(c3)CC3(CCN(C5CCC5)CC3)O4)ccc2n1` [Compound 30, 1′-Cyclobutyl-5-(imidazo[1,2-a]pyridin-6-yl)-3H-spiro[benzofuran-2,4′-piperidine]] here?
A: Its concentration at 1 hr is 5200 ng/g.

Same assay, conditions: adult male rats, oral gavage in water, 10 mg/kg, 24 hr after dosing, read-out: Compound Concentration (ng/g rat brain) 24 hr

Q: With `c1cn2cc(-c3ccc4c(c3)CC3(CCN(C5CCC5)CC3)O4)ccc2n1` [Compound 30, 1′-Cyclobutyl-5-(imidazo[1,2-a]pyridin-6-yl)-3H-spiro[benzofuran-2,4′-piperidine]] as the compound, how does the concentration at 24 hr read?
A: Its concentration at 24 hr is 250 ng/g.
